# Assay results: patent US8450527B2, “Amine derivative compounds for treating ophthalmic diseases and disorders” (Acucela Inc., priority 2007, dated 2013)
# Target: T1, visual cycle isomerase (Bos taurus, UniProt Q28175)
# T1 construct: Bovine Retinal Pigment Epithelium (RPE) microsome membranes were the source of a visual cycle isomerase; from tissue; host or cells: bovine retinal pigment epithelium microsome membranes; CRALBP made in E. coli
# T1 sequence (Q28175 2-533 limits assumed): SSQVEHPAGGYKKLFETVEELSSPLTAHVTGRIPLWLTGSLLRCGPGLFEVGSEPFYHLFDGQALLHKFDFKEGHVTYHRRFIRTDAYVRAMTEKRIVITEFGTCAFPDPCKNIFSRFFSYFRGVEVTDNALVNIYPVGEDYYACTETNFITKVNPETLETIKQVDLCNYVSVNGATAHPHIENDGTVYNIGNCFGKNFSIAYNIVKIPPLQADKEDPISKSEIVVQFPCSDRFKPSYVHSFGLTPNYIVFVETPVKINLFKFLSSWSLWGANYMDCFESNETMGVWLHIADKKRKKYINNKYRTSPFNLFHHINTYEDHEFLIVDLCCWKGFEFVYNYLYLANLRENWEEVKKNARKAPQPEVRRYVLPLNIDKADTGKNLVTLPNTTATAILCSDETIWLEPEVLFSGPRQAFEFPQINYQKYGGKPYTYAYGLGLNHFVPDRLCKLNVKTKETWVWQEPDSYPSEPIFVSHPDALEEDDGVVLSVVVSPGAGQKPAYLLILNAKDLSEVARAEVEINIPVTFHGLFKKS
# Assay: In vitro isomerase inhibition assay, bovine RPE microsome membranes
# Assay type: biochemical
# Details: inhibition of 11-cis retinol formation; values given as ranges
# Procedure: The capability of amine derivative compounds to inhibit the activity of a visual cycle isomerase was determined
# Isomerase inhibition reactions were performed essentially as described (Stecher et al., J. Biol. Chem. 274:8577-85 (1999); see also Golczak et al., Proc. Natl. Acad. Sci. USA 102:8162-67 (2005)). Bovine Retinal Pigment Epithelium (RPE) microsome membranes were the source of a visual cycle isomerase.
# Bovine RPE microsome membrane extracts were prepared according to methods described (Golczak et al., Proc. Natl. Acad. Sci. USA 102:8162-67 (2005)) and stored at −80° C. Crude RPE microsome extracts were thawed in a 37° C. water bath, and then immediately placed on ice. 50 ml crude RPE microsomes were placed into a 50 ml Teflon-glass homogenizer (Fisher Scientific, catalog no. 0841416M) on ice, powered by a hand-held DeWalt drill, and homogenized ten times upand down on ice under maximum speed. This process was repeated until the crude RPE microsome solution was homogenized. The homogenate was then subjected to centrifugation (50.2 Ti rotor (Beckman, Fullerton, Calif.), 13,000 RPM; 15360 Rcf) for 15 minutes at 4° C. The supernatant was collected and subjected to centrifugation at 42,000 RPM (160,000 Rcf; 50.2 Ti rotor) for 1 hour at 4° C. The supernatant was removed, and the pellets were suspended in 12 ml (final volume) cold 10 mM MOPS buffer, pH 7.0. The resuspended RPE membranes in 5 ml aliquots were homogenized in a glass-to-glass homogenizer (Fisher Scientific, catalog no.K885500-0021) to high homogeneity. Protein concentration was quantified using the BCA protein assay according to the manufacturer's protocol (Pierce, Rockford, Ill.). The homogenized RPE preparations were stored at −80° C.
# Recombinant human apo cellular retinaldehyde-binding protein (CRALBP) was cloned and expressed according to standard methods in the molecular biology art (see Crabb et al., Protein Science 7:746-57 (1998); Crabb et al., J. Biol. Chem. 263:18688-92 (1988)). Briefly, total RNA was prepared from confluent ARPE^19 cells (American Type Culture Collection, Manassas, Va.), cDNA was synthesized using an oligo(dT)12-18 primer, and then DNA encoding CRALBP was amplified by two sequential polymerase chain reactions (see Crabb et al., J. Biol. Chem. 263:18688-92 (1988); Intres, et al., J. Biol. Chem. 269:25411-18 (1994); GenBank Accession No. L34219.1). The PCR product was sub-cloned into pTrcHis2-TOPO TA vector according to the manufacturer's protocol (Invitrogen Inc., Carlsbad, Calif.; catalog no. K4400-01), and then the sequence was confirmed according to standard nucleotide sequencing techniques. Recombinant 6×His-tagged human CRALBP was expressed in One Shot TOP 10 chemically competent E. coli cells (Invitrogen), and the recombinant polypeptide was isolated from E. coli cell lysates by nickel affinity chromatography using nickel (Ni) Sepharose XK16-20 columns for HPLC (Amersham Bioscience, Pittsburgh, Pa.; catalog no.17-5268-O2). The purified 6×His-tagged human CRALBP was dialyzed against 10 mM bis-tris-Propane (BTP) and analyzed by SDS-PAGE. The molecular weight of the recombinant human CRALBP was approximately 39 kDal.
# Amine derivative compounds and control compounds were reconstituted in ethanol to 0.1 M. Ten-fold serial dilutions (10^−2, 10^−3, 10^−4, 10^−5, 10^−6 M) in ethanol of each compound were prepared for analysis in the isomerase assay.
# The isomerase assay was performed in 10 mM bis-tris-propane (BTP) buffer, pH 7.5, 0.5% BSA (diluted in BTP buffer), 1 mM sodium pyrophosphate, 20 μM all-trans retinol (in ethanol), and 6 μM apo-CRALBP. The test compounds (2 μl) (final 1/15 dilution of serial dilution stocks) were added to the above reaction mixture to which RPE microsomes were added. The same volume of ethanol was added to the control reaction (absence of test compound). Bovine RPE microsomes (9 μl) (see above) were then added, and the mixtures transferred to 37° C. to initiate the reaction (total volume=150 μl). […]
row,IC50,SMILES
1,≤ 1 µM,"CCCC(O)(CCC)CCc1cccc(CCCN)c1 [Example 3, 4-(3-(3-aminopropyl)phenethyl)heptan-4-ol]"
2,≤ 1 µM,"NCCCc1cccc(CCC2(O)CCCCC2)c1 [Example 7, 1-(3-(3-aminopropyl)phenethyl)cyclohexanol]"
3,≤ 1 µM,"CCCC(O)(CCC)CCc1cccc(OCCN)c1 [Example 9, 4-(3-(2-aminoethoxy)phenethyl)heptan-4-ol]"
4,≤ 1 µM,"NCCOc1cccc(CCC2(O)CCCCCC2)c1 [Example 10, 1-(3-(2-aminoethoxy)phenethyl)cycloheptanol]"
5,≤ 1 µM,"NCCOc1cccc(CCC2(O)CCSCC2)c1 [Example 11, 4-(3-(2-aminoethoxy)phenethyl)tetrahydro-2H-thiopyran-4-ol]"
6,≤ 1 µM,"NCCOc1cccc(CCC2(O)CCCCC2)c1 [Example 12, 1-(3-(2-aminoethoxy)phenethyl)cyclohexanol]"
7,≤ 1 µM,"NCCC(O)c1cccc(CCC2(O)CCCCC2)c1 (centres unmarked) [Example 15, 1-(3-(3-amino-1-hydroxypropyl)phenethyl)cyclohexanol]"
8,≤ 1 µM,"NCCC(O)c1cccc(CCC2(O)CCCCCC2)c1 (centres unmarked) [Example 16, 1-(3-(3-amino-1-hydroxypropyl)phenethyl)cycloheptanol]"
9,≤ 1 µM,"NCCC(O)c1cccc(CCC2CCCC2)c1 (centres unmarked) [Example 17, 3-amino-1-(3-(2-cyclopentylethyl)phenyl)propan-1-ol]"
10,≤ 1 µM,"CCCC(O)(CCC)CCc1cccc(C(O)CCN)c1 (centres unmarked) [Example 19, 4-(3-(3-amino-1-hydroxypropyl)phenethyl)heptan-4-ol]"
11,≤ 1 µM,"NCCCc1cccc(CCC2(O)CCCCCC2)c1 [Example 20, 1-(3-(3-aminopropyl)phenethyl)cycloheptanol]"
12,≤ 1 µM,"CCCCCc1cccc(CCCN)c1 [Example 27, 3-(3-pentylphenyl)propan-1-amine]"
13,≤ 1 µM,"CC(C)(C)CCc1cccc(CCCN)c1 [Example 29, 3-(3-(3,3-dimethylbutyl)phenyl)propan-1-amine]"
14,≤ 1 µM,"NCCCc1cccc(CCCCc2ccccc2)c1 [Example 35, 3-(3-(4-phenylbutyl)phenyl)propan-1-amine]"
